Experimental findings from ChEMBL document CHEMBL4359894, “Novel class of 7-Oxabicyclo[2.2.1]heptene sulfonamides with long alkyl chains displaying improved estrogen receptor α degradation activity” (Eur J Med Chem, 2019) are described below.

In series [1] the test system is MCF7. As to the kind of experiment: Induction of apoptosis in human MCF7 cells assessed as live cells at 5 uM incubated for 24 hrs by Annexin V-FITC/propidium iodide staining-based flow cytometric analysis (reference value: 85.37%). In kind it is functional. In general terms: Flow cytometry measures light scatter and fluorescence of single cells or particles in a stream.

Series [2] has as its target T1, Estrogen receptor (Homo sapiens) (UniProt P03372).
T1 sequence (whole entry): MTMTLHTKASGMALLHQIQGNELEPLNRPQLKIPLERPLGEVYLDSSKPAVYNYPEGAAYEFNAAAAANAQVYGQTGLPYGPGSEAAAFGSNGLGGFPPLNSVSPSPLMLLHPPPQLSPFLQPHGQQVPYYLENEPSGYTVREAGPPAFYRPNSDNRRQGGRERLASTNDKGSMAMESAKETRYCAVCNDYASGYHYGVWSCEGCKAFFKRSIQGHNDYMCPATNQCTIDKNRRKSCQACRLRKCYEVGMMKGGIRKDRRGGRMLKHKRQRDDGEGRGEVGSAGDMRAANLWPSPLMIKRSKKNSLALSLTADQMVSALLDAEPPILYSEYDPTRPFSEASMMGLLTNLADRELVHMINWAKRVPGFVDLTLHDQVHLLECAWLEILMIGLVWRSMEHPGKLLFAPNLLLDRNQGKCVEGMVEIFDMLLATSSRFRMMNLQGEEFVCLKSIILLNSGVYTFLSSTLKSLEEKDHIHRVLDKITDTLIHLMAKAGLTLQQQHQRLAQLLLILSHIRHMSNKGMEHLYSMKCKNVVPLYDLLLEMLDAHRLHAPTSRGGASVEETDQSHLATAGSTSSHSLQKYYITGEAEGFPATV
As to the kind of experiment: Induction of ERalpha degradation in human MCF7 cells assessed as decrease in ERalpha protein expression at 0.5 uM incubated for 24 hrs by Western blot analysis. The format is cell-based. A general note: A western blot detects proteins with antibodies after separation by electrophoresis.

The nature of series [3]: Tmax in Sprague-Dawley rat at 3 mg/kg, iv administered via foot dorsal vein by LC-MS/MS analysis. In kind it is ADME, organism-based. To be noted: in vivo.
Series [4] has as its target T1, Estrogen receptor (Homo sapiens). The experiment in a line: Binding affinity to ERalpha (unknown origin) by competitive fluorometric receptor binding assay relative to estradiol.
The test system of series [5] is MCF7. The experiment in a line: Induction of apoptosis in human MCF7 cells assessed as necrotic cells at 10 uM incubated for 24 hrs by Annexin V-FITC/propidium iodide staining-based flow cytometric analysis (reference value: 4.65%). In kind it is functional.
In series [6] the test system is MCF7. The experiment in a line: Induction of apoptosis in human MCF7 cells assessed as live cells at 10 uM incubated for 24 hrs by Annexin V-FITC/propidium iodide staining-based flow cytometric analysis (reference value: 85.37%). The format is functional.
Series [7] concerns MCF7. The experiment in a line: Induction of apoptosis in human MCF7 cells assessed as necrotic cells at 5 uM incubated for 24 hrs by Annexin V-FITC/propidium iodide staining-based flow cytometric analysis (reference value: 4.65%). In kind it is functional.
Series [8] is described as follows: Volume of distribution at steady state in Sprague-Dawley rat at 3 mg/kg, iv administered via foot dorsal vein by LC-MS/MS analysis. In kind it is ADME, organism-based. To be noted: in vivo, read-out: Vdss.
Series [9] is described as follows: Cmax in Sprague-Dawley rat at 3 mg/kg, iv administered via foot dorsal vein by LC-MS/MS analysis. To be noted: in vivo. In kind it is ADME, organism-based. Also noted: dose 3 mg/kg, route intravenous.
The next series deals with MCF-10A. The experiment in a line: Cytotoxicity against human MCF10A cell incubated for 72 hrs by MTT assay. The format is cell-based. (Tetrazolium dyes change colour on reduction, which living cells bring about.)
Series [10] in a line: Half life in Sprague-Dawley rat at 3 mg/kg, iv administered via foot dorsal vein by LC-MS/MS analysis. The format is ADME, organism-based. To be noted: in vivo.
In series [11] the target is T1, Estrogen receptor (Homo sapiens). The experiment in a line: Induction of ERalpha degradation in human MCF7 cells assessed as decrease in ERalpha protein expression at 5 uM incubated for 24 hrs by Western blot analysis relative to control. In kind it is cell-based. Further details: scale not given: the % may be the effect or the level left.
The subject of series [12] is MCF7. As to the kind of experiment: Induction of apoptosis in human MCF7 cells assessed as early apoptotic cells at 10 uM incubated for 24 hrs by Annexin V-FITC/propidium iodide staining-based flow cytometric analysis (reference value: 1.26%). The format is functional.
Series [13] is described as follows: AUC (0 to infinity) in Sprague-Dawley rat at 3 mg/kg, iv administered via foot dorsal vein by LC-MS/MS analysis. In kind it is ADME, organism-based. Further details: dose 3 mg/kg, route intravenous, time infinity. To be noted: in vivo.
Series [14] addresses Estrogen receptor beta (Homo sapiens) (UniProt Q92731). The experiment in a line: Binding affinity to ERbeta (unknown origin) by competitive fluorometric receptor binding assay relative to estradiol.
Series [15] has as its system MCF7. The experiment in a line: Induction of apoptosis in human MCF7 cells assessed as late apoptotic cells at 5 uM incubated for 24 hrs by Annexin V-FITC/propidium iodide staining-based flow cytometric analysis (reference value: 8.73%). In kind it is functional.
Series [16] in a line: Plasma clearance in Sprague-Dawley rat at 3 mg/kg, iv administered via foot dorsal vein by LC-MS/MS analysis. The format is ADME, organism-based.
Series [17] relates to MCF7. The experiment in a line: Induction of apoptosis in human MCF7 cells assessed as live cells at 1 uM incubated for 24 hrs by Annexin V-FITC/propidium iodide staining-based flow cytometric analysis (reference value: 85.37%). In kind it is functional.
Series [18] concerns MCF7. The experiment in a line: Induction of apoptosis in human MCF7 cells assessed as late apoptotic cells at 10 uM incubated for 24 hrs by Annexin V-FITC/propidium iodide staining-based flow cytometric analysis (reference value: 8.73%). In kind it is functional.
Series [19] relates to MCF7. The experiment in a line: Induction of apoptosis in human MCF7 cells assessed as late apoptotic cells at 1 uM incubated for 24 hrs by Annexin V-FITC/propidium iodide staining-based flow cytometric analysis (reference value: 8.73%). The format is functional.
Series [20] relates to MCF7. As to the kind of experiment: Induction of apoptosis in human MCF7 cells assessed as early apoptotic cells at 1 uM incubated for 24 hrs by Annexin V-FITC/propidium iodide staining-based flow cytometric analysis (reference value: 1.26%). In kind it is functional.
For series [21], the system named is MCF7. As to the kind of experiment: Induction of apoptosis in human MCF7 cells assessed as early apoptotic cells at 5 uM incubated for 24 hrs by Annexin V-FITC/propidium iodide staining-based flow cytometric analysis (reference value: 1.26%). In kind it is functional.
Series [22] concerns MCF7. The experiment in a line: Induction of apoptosis in human MCF7 cells assessed as necrotic cells at 1 uM incubated for 24 hrs by Annexin V-FITC/propidium iodide staining-based flow cytometric analysis (reference value: 4.65%). The format is functional.
Series [23] addresses T1, Estrogen receptor (Homo sapiens). As to the kind of experiment: Induction of ERalpha degradation in human MCF7 cells assessed as decrease in ERalpha protein expression at 5 uM incubated for 24 hrs in presence of proteasome inhibitor MG132 by Western blot analysis. In kind it is cell-based.
The target is the same in series [24]. The experiment in a line: Induction of ERalpha degradation in human MCF7 cells assessed as decrease in ERalpha protein expression at 1 uM incubated for 24 hrs by Western blot analysis relative to control. In kind it is cell-based. Further details: scale not given: the % may be the effect or the level left.
Series [25] is described as follows: Therapeutic index, ratio of IC50 for cytotoxicity against human MCF10A cells to IC50 for antiproliferative activity against human MCF7 cells. In kind it is toxicity, cell-based. To be noted: read-out: Ratio IC50.
The test system of series [26] is MCF7. The experiment in a line: Antiproliferative activity against human MCF7 cell incubated for 72 hrs by MTT assay. In kind it is functional, cell-based. To be noted: MCF7, 72 h.
Series [27] concerns the target T1, Estrogen receptor (Homo sapiens). As to the kind of experiment: Induction of ERalpha degradation in human MCF7 cells assessed as decrease in ERalpha protein expression at 10 uM incubated for 24 hrs by Western blot analysis. The format is cell-based.
Series [28] shares this target. The experiment in a line: Induction of ERalpha degradation in human MCF7 cells assessed as decrease in ERalpha protein expression at 0.1 to 10 uM incubated for 24 hrs by Western blot analysis. The format is cell-based.

SMILES strings stand for the structures. The source made the active and inactive calls. No cut-off for these calls is given here. Where a SMILES comes first, the peptide text is derived from it. The star is where a group is joined. Cbz = O=C(OCc1ccccc1)* Bounds are passed on as bounds.

Sequence of Estrogen receptor beta (Homo sapiens) (Q92731 whole entry): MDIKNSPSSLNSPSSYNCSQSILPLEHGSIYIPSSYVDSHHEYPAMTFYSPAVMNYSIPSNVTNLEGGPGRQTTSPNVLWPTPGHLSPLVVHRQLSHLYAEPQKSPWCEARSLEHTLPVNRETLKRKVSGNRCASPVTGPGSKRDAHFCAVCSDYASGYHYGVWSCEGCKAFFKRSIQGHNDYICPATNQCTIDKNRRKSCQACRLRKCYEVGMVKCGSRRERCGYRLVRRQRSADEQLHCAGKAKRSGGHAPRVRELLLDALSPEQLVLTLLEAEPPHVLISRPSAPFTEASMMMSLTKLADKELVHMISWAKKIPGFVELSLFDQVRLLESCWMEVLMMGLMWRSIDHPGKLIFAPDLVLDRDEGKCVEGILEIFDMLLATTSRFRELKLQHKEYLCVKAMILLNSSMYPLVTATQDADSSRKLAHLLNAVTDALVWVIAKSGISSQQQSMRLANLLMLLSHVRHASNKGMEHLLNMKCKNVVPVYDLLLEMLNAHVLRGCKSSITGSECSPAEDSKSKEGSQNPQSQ

Turning to `CCCCCCOc1ccc(N(CC(F)(F)F)S(=O)(=O)[C@H]2C[C@H]3O[C@@H]2C(c2ccc(O)cc2)=C3c2ccc(O)cc2)cc1` (relative stereo), the Activity in the series with MCF7 [1] was 12.95%; with MCF7 [5], 1.88%; in the series on MCF7 [6], 13.39%; in the series on MCF7 [7], 9.24%; with MCF7 [12] it was 65.96%; with MCF7 [15] it was 40.85%. The Activity turned out to be 79.95% with MCF7 [17]; 18.77% in the series with MCF7 [18]; 12.72% in the series with MCF7 [19]; 5.99% in the series on MCF7 [20]; 36.96% in the series with MCF7 [21]; 1.34% with MCF7 [22]. The Activity in [24] came to 100%. Also, the outcome in series [2] and in [11] was Active. For the same compound, the Tmax in [3] is 4.8 min. In addition, the relative binding affinity (RBA) in [4] amounted to 3.11; in [14] it was 0.86. In addition, the Vd in [8] came out at 10.7 L/kg. This compound also gave a Cmax in series [9] of 964 ng/mL. In addition, the IC50 worked out at 39.3 µM in the series on MCF-10A and 0.77 µM with MCF7 [26]. This compound also showed a half-life in series [10] of 2.2 h. The AUC(0-inf) in series [13] amounted to 529 ng·h/mL. The compound further had a clearance in series [16] of 105 mL/min/kg. For the same compound, the result in series [23] was inactive. The selectivity ratio in [25] was found to be 51.
For `CC(C)C[C@@H](C=O)NC(=O)[C@H](CC(C)C)NC(=O)[C@H](CC(C)C)NC(=O)OCc1ccccc1` (Cbz-Leu-Leu-Leu-aldehyde), the result in series [27] was inactive.
On to `CCCCCOc1ccc(C2=C(c3ccc(O)cc3)[C@H]3O[C@@H]2C[C@@H]3S(=O)(=O)N(CC(F)(F)F)c2ccc(OC)cc2)cc1` (relative stereo), for which the relative binding affinity (RBA) in series [4] is 1.53; in series [14], 0.24. Moreover, the concentration for half-maximal inhibition (IC50) in the series with MCF-10A was over 100 µM; with MCF7 [26] it was 1.78 µM. Also, in [11], the Activity was 100%. Besides, the selectivity ratio in series [25] is over 56.1.
For `CCCCCOc1ccc(C2=C(c3ccc(O)cc3)[C@H]3C[C@H](S(=O)(=O)N(CC(F)(F)F)c4ccc(OC)cc4)[C@@H]2O3)cc1` (relative stereo), the relative binding affinity (RBA) worked out at 4.29 in series [4] and 0.04 in series [14]. For the same compound, the IC50 in the series on MCF-10A came out at 97.3 µM; in the series on MCF7 [26], 12.7 µM. The Activity in series [11] was 100%. Also, in series [25], the selectivity ratio turned out to be 7.6.
Take `CCCCOc1ccc(C2=C(c3ccc(O)cc3)[C@H]3C[C@H](S(=O)(=O)N(CC(F)(F)F)c4ccc(OC)cc4)[C@@H]2O3)cc1` (relative stereo): the relative binding affinity (RBA) in [4] came to 2.11; in [14], 0.85. Further, the results for the IC50 in the series with MCF-10A and with MCF7 [26] were 69.7 µM and 3.02 µM, respectively. In addition, the Activity in [11] stood at 100%. In addition, the selectivity ratio in series [25] was 23.1.
With `COc1ccc(N(CC(F)(F)F)S(=O)(=O)[C@H]2C[C@H]3O[C@@H]2C(c2ccc(O)cc2)=C3c2ccc(O)cc2)cc1` (relative stereo), the relative binding affinity (RBA) in series [4] turned out to be 0.74; in series [14], 0.07. The IC50 was 41.7 µM in the series on MCF-10A and 9.84 µM in the series on MCF7 [26]. For the same compound, the outcome in series [28] and in series [24] was Active. In series [25], the selectivity ratio was determined as 4.2.
Turning to `CCCCCCOc1ccc(C2=C(c3ccc(O)cc3)[C@H]3C[C@H](S(=O)(=O)N(CC(F)(F)F)c4ccc(OC)cc4)[C@@H]2O3)cc1` (relative stereo), the relative binding affinity (RBA) in series [4] came to 8.37; in series [14], 0.01. Also, the 50% inhibitory concentration (IC50) in the series on MCF-10A was found to be 39 µM; in the series with MCF7 [26], 1.15 µM. In addition, the Activity in [11] was determined as 100%. Further, the selectivity ratio in series [25] is 33.9.
Consider `CCCCCCOc1ccc(N(CC)S(=O)(=O)[C@H]2C[C@H]3O[C@@H]2C(c2ccc(O)cc2)=C3c2ccc(O)cc2)cc1` (relative stereo), for which the relative binding affinity (RBA) amounted to 2.29 in [4] and 0.14 in series [14]. For the same compound, the IC50 amounted to 36.5 µM in the series with MCF-10A and 1.48 µM with MCF7 [26]. For the same compound, in [11], the outcome was Active. In [25], the selectivity ratio turned out to be 24.6.

Broadly, the Tmax is the time from dosing to the highest level. A word on the Cmax: it is the highest concentration seen after dosing. Broadly, the IC50 is the midpoint of a concentration-inhibition curve. The half-life is how long it takes for the measured level to halve. What is called AUC(0-inf) is the area under the concentration-time curve extrapolated to infinity. For orientation: clearance means the volume of plasma or blood freed of the substance per unit of time.
